Measured values as given in patent publication US20230270855A1, “Genetically Modified T-Cells and PI3K/AKT Inhibitors For Cancer Treatment” (The Research Foundation for The State of University New York, priority 2018, published 2023).

Key:
WT KPC pancreatic tumors = experiment: Adoptive transfer of PI3K mutant-expressing T-cells plus BYL719 in tumor-bearing mice; assay type: in vivo; settings: WT mice implanted with WT KPC cells
Procedure: To test the anti-tumor efficacy of CTLKPC clones that express one or more PI3K p110α mutants, one or more PI3K p110δ mutants or combinations of PI3K p110α and p110δ mutants, respectively, in vivo, WT mice are implanted with 0.5 million WT KPC cells in the pancreas. After 2 weeks, the pancreatic tumors are well established and are quantified by IVIS imaging. […] Changes in tumor size are monitored by IVIS imaging and survival curves are constructed. Post-mortem examination is performed as described above for analyzing the pancreas. Tumor regression is observed only in the groups that receive adoptive transfer of PI3K mutant-expressing T-cells, plus concurrent treatment with the appropriate PI3K inhibitor.

Akt1W80A = Akt1W80A (Homo sapiens, UniProt P31749, W80A); settings: previous studies; cited from earlier work
Chain of Akt1W80A (P31749 whole entry W80A): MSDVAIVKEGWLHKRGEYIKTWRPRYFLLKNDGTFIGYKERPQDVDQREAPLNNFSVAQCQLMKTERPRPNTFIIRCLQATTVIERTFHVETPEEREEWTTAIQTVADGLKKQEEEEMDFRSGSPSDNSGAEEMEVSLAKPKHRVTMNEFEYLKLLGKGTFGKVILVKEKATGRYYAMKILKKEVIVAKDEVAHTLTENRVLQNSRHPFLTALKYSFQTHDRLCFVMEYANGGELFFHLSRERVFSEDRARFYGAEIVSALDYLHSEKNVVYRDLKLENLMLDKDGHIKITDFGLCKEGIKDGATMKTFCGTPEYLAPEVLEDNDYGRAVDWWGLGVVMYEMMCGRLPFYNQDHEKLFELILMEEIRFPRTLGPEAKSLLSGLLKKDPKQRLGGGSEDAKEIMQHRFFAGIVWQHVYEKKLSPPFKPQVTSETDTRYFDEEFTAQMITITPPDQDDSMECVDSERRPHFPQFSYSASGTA

Akt2W80A = Akt2W80A (Homo sapiens, UniProt P31751, W80A); settings: previous studies; cited from earlier work
Chain of Akt2W80A (P31751 whole entry W80A): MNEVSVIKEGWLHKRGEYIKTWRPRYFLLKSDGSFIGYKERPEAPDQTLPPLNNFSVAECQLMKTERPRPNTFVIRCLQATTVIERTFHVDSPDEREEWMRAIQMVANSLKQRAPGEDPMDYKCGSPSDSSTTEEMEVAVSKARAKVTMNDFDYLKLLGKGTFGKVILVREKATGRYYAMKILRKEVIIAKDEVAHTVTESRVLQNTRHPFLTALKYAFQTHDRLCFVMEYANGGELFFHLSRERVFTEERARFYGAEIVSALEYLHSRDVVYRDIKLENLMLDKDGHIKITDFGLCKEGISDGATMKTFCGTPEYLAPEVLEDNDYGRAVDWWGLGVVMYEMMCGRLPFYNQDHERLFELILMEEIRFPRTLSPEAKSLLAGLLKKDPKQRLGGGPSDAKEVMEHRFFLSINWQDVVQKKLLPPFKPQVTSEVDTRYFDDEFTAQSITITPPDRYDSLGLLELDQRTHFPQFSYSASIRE

## Cc1nc(NC(=O)N2CCC[C@H]2C(N)=O)sc1-c1ccnc(C(C)(C)C(F)(F)F)c1 [BYL719]
WT KPC pancreatic tumors
  survival: all die from pancreatic tumor progression

## NC1(c2ccc(-c3nc4ccn5c(=O)[nH]nc5c4cc3-c3ccccc3)cc2)CCC1 [MK2206]
Akt1W80A
  inhibition of Akt1W80A mutant: completely resistant
Akt2W80A
  inhibition of Akt2W80A mutant: completely resistant
